Tests used:
human CRTH2 = biological target: T1, human CRTH2 (Homo sapiens, UniProt Q9Y5Y4); assay: Measurement of Ca2+ mobilization in the human CRTH2-transfected L1.2 cell line (Assay 1); format: cell-based; conditions: PGD2-induced Ca2+ mobilization in CRTH2-transfected L1.2 cells; compounds as yielded by solid phase synthesis, purity about 40 to 90%; read-out: Activity class
T1 construct: expressed in transfected cells; host or cells: L1.2 cells, pEAK expression vector, puromycin-selected
T1 sequence (Q9Y5Y4 1-395): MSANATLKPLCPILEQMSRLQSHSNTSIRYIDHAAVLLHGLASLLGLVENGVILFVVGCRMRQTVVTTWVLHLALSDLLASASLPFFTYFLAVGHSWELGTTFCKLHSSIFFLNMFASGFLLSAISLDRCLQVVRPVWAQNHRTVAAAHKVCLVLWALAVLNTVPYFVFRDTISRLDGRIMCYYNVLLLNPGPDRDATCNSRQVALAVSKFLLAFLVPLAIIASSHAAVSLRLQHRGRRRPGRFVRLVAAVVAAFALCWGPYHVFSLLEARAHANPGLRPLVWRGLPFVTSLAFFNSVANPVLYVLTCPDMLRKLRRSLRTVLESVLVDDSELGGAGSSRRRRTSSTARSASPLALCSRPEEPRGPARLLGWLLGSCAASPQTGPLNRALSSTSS
Description: Human CRTH2 cDNA was amplified from human eosinophil cDNA with gene specific primers containing restriction sites for cloning into pEAK vector (Edge Bio Systems). The human CRTH2 cDNA was cloned into the mammalian expression vector pEAK. This expression plasmid (40 μg) was transfected into L1.2 cells, at a cell density of 1×10^7 cells/500 μl, by using electroporation apparatus (Gene Pulser II, BioRad) at 250V/1,000 μF. One day after the transfection, puromycin (1 μg/ml, Sigma) was added into the cell culture plates. Two weeks after the transfection, grown cells were picked up for further growth.
[Measurement of Ca^2+ Mobilization in the Human CRTH2-Transfected L1.2 Cell Line] (Assay 1)
Ca^2+ loading buffer was prepared by mixing 5 μl of Fluo-3AM (2 mM in DMSO, final 1 μM, Molecular Probes) and 10 μl of pluronic F-127 (Molecular Probes) and diluting the resulting mixture in 10 ml of Ca^2+ assay buffer (20 mM HEPES pH 7.6, 0.1% BSA, 1 mM probenecid, Hanks' solution). The CRTH2 transfected cells which were prepared in Example 1 were washed with PBS, resuspended in Ca^2+ loading buffer at 1×10^7 cells/ml, and incubated for 60 min at room temperature. After incubation, cells were washed and resuspended in Ca^2+ assay buffer, then dispensed into transparent-bottom 96-well plates (#3631, Costar) at 2×10^5 cells/well. Cells were incubated with various concentrations of test compound for 5 minutes at room temperature. The emitted 480 nm fluorescence was measured on FDSS6000, a Ca^2+-measurement apparatus (Hamamatsu Photonics, Hamamatsu, Japan).
Assay results in Assay 1 are shown in Examples and tables of the Examples below. The data corresponds to the compounds as yielded by solid phase synthesis and thus to levels of purity of about 40 to 90%. For practical reasons, the compounds are grouped in four classes of activity as follows: IC50=A(< or =)10 nM<B(< or =)100 nM<C(< or =)500 nM<D

Row | melting point | IC50 (human CRTH2) [nM] | Structure (SMILES)
1 | 162 °C | < 10 | O=C(O)Cc1c(Cl)nc(Cc2ccc(NC(=O)c3ccc(C(F)(F)F)cc3)cc2)nc1N1CCCC1 [Example 1-64]
2 | 149 to 153 °C | < 10 | CN(C)c1nc(Cc2ccc(NC(=O)c3ccc(C(F)(F)F)cc3)cc2)ncc1CC(=O)O [Example 2-13]
3 | 136 °C | 10 to 100 | CN(CC(=O)NC1CCCC1)c1nc(Cc2ccc(NC(=O)c3cccc4ccccc34)cc2)nc(Cl)c1CC(=O)O [Example 1-22]
4 | > 130 °C | < 10 | COc1ccc(C(=O)Nc2ccc(Cc3nc(Cl)c(CC(=O)O)c(N(C)C)n3)cc2)cc1 [Example 1-36]
5 | 132 to 135 °C | 100 to 500 | CN(C)c1nc(Cc2ccc(NC(=O)c3ccc(F)cc3)cc2)nc(N2CCCC2)c1CC(=O)O [Example 7-28]
6 | 196 to 198 °C | 10 to 100 | CN(C)c1nc(Cc2ccc(NC(=O)c3ccc(Cl)c(Cl)c3)cc2)nc(N2CCOCC2)c1CC(=O)O [Example 7-19]
7 | 131 to 133 °C | 100 to 500 | CN(C)c1nc(Cc2ccc(NC(=O)c3ccc4ccccc4n3)cc2)nc(N2CCCC2)c1CC(=O)O [Example 7-9]
8 | 148 to 150 °C | < 10 | CCc1nc(Cc2ccc(NC(=O)c3ccc4ccccc4c3)cc2)nc(N(C)C)c1CC(=O)O [Example 8-8]
9 | 101 °C | 100 to 500 | CN(C)c1nc(Cc2ccc(NC(=O)c3cccc(Cl)c3Cl)cc2)nc(Cl)c1CC(=O)O [Example 1-43]
10 | 160 °C | < 10 | O=C(O)Cc1c(Cl)nc(Cc2ccc(NC(=O)c3ccc(Oc4ccccc4)cc3)cc2)nc1N1CCCC1 [Example 1-55]
11 | 118 °C | < 10 | CN(CC(=O)NC1CCCC1)c1nc(Cc2ccc(NC(=O)c3cc4ccccc4o3)cc2)nc(Cl)c1CC(=O)O [Example 1-25]
12 | 146 to 149 °C | < 10 | CN(C)c1nc(Cc2ccc(NC(=O)/C=C/c3ccc(Cl)cc3)cc2)nc(N2CCCC2)c1CC(=O)O [Example 7-10]
13 | 88 to 90 °C | > 500 | COCc1nc(Cc2ccc(NC(=O)OCc3ccccc3)cc2)nc(N(C)C)c1CC(=O)O [Example 9-5]
14 | 120 to 123 °C | > 500 | CCc1nc(Cc2ccc(NC(=O)OCc3ccccc3)cc2)nc(N(C)C)c1CC(=O)O [Example 9-6]
15 | 224 to 226 °C | 10 to 100 | CN(C)c1nc(Cc2ccc(NC(=O)c3ccc(-c4ccccc4)cc3)cc2)nc(N2CCCC2)c1CC(=O)O [Example 7-16]
16 | 146 °C | < 10 | CN(CC(=O)NC1CCCC1)c1nc(Cc2ccc(NC(=O)c3cc4ccccc4[nH]3)cc2)nc(Cl)c1CC(=O)O [Example 1-26]
17 | 118 °C | < 10 | COc1ccc(C(=O)Nc2ccc(Cc3nc(Cl)c(CC(=O)O)c(N4CCCC4)n3)cc2)cc1[N+](=O)[O-] [Example 1-58]
18 | 136 to 144 °C | 10 to 100 | CN(C)c1nc(Cc2ccc(NC(=O)c3ccc4ccccc4n3)cc2)ncc1CC(=O)O [Example 2-9]
19 | 150 to 153 °C | < 10 | CC(c1ccc(NC(=O)/C=C/c2ccccc2)cc1)c1ncc(CC(=O)O)c(N(C)C)n1 (stereo not drawn) [Example 2-23]
20 | > 135 °C | > 500 | CN(CC(=O)NC1CCCC1)c1nc(Cc2ccc(NC(=O)c3ccccn3)cc2)nc(Cl)c1CC(=O)O [Example 1-2]
21 | 104 °C | < 10 | COc1ccc(C(=O)Nc2ccc(Cc3nc(Cl)c(CC(=O)O)c(N(C)CC(=O)NC4CCCC4)n3)cc2)cc1 [Example 1-20]
22 | 135 to 140 °C | < 10 | CN(C)c1nc(Cc2ccc(NC(=O)/C=C/c3ccccc3)cc2)ncc1CC(=O)O [Example 2-10]
23 | 142 °C | < 10 | CN(CC(=O)NC1CCCC1)c1nc(Cc2ccc(NC(=O)/C=C/c3ccccc3)cc2)nc(Cl)c1CC(=O)O [Example 1-17]

Row | melting point | IC50 (human CRTH2) [nM] | Structure (SMILES)
24 | 212 to 213 °C (dec.) | 10 to 100 | CN(C)c1nc(Cc2ccc(NC(=O)c3ccc(C(F)(F)F)cc3)cc2)nc(N2CCOCC2)c1CC(=O)O [Example 7-20]
25 | 116 °C | > 500 | CN(CC(=O)NC1CCCC1)c1nc(Cc2ccc(NS(=O)(=O)c3ccc4ccccc4c3)cc2)nc(Cl)c1CC(=O)O [Example 1-23]
26 | 295 °C | > 500 | CN(C)c1nc(Cc2ccccc2NC(=O)c2ccc3ccccc3c2)nc(Cl)c1CC(=O)O [Example 1-50]
27 | 197 to 198 °C | 100 to 500 | CN(C)c1nc(Cc2ccc(NC(=O)c3ccc(F)cc3)cc2)nc(N2CCOCC2)c1CC(=O)O [Example 7-30]
28 | 88 to 91 °C | < 10 | CN(C)c1nc(Cc2ccc(NC(=O)OCc3ccccc3)cc2)nc(Cl)c1CC(=O)O [Example 9-3]
29 | > 168 °C | < 10 | CN(C)c1nc(Cc2ccc(NC(=O)c3ccc(Cl)c(Cl)c3)cc2)nc(Cl)c1CC(=O)O [Example 1-34]
30 | 140 to 142 °C | 10 to 100 | CN(C)c1nc(Cc2ccc(NC(=O)c3ccc(Cl)cc3)cc2)nc(N2CCCC2)c1CC(=O)O [Example 7-29]
31 | 217 °C | < 10 | O=C(O)Cc1c(Cl)nc(Cc2ccc(NC(=O)c3ccc(-n4cccc4)cc3)cc2)nc1N1CCCC1 [Example 1-57]
32 | 145 to 148 °C | 10 to 100 | CC(C)c1nc(Cc2ccc(NC(=O)c3ccc(C(F)(F)F)cc3)cc2)nc(N(C)C)c1CC(=O)O [Example 8-11]
33 | 101 to 104 °C | 10 to 100 | CN(C)c1nc(Cc2ccc(NC(=O)OCc3ccccc3)cc2)ncc1CC(=O)O [Example 9-1, [2-(4-{[(Benzyloxy)carbonyl]amino}benzyl)-4-(dimethylamino)pyrimidin-5-yl]acetic acid]
34 | 140 °C | < 10 | CN(CCO)c1nc(Cc2ccc(NC(=O)c3ccc4ccccc4c3)cc2)nc(Cl)c1CC(=O)O [Example 1-66]
35 | 144 °C | < 10 | COCCN(C)c1nc(Cc2ccc(NC(=O)c3ccc4ccccc4c3)cc2)nc(Cl)c1CC(=O)O [Example 3-5]
36 | > 149 °C | 10 to 100 | CN(CC(=O)NC1CCCC1)c1nc(Cc2ccc(NC(=O)CC3CCCCC3)cc2)nc(Cl)c1CC(=O)O [Example 1-13]
37 | > 176 °C | < 10 | CN(CC(=O)NC1CCCC1)c1nc(Cc2ccc(NC(=O)c3ccc4ccccc4c3)cc2)nc(Cl)c1CC(=O)O [Example 1-62]
38 | 221 to 224 °C (dec.) | < 10 | O=C(O)Cc1cnc(Cc2ccc(NC(=O)c3ccc4ccccc4n3)cc2)nc1N1CCCC1 [Example 2-27]
39 | > 160 °C | < 10 | CN(C)c1nc(Cc2ccc(NC(=O)/C=C/c3ccccc3)cc2)nc(Cl)c1CC(=O)O [Example 1-33]
40 | 129 °C | < 10 | O=C(O)Cc1c(Cl)nc(Cc2ccc(NC(=O)c3ccc(Cl)c(Cl)c3)cc2)nc1N1CCCC1 [Example 1-61]
41 | 216 to 218 °C (dec.) | 100 to 500 | CN(C)c1nc(Cc2ccc(NC(=O)c3ccc(Cl)cc3)cc2)nc(N2CCOCC2)c1CC(=O)O [Example 7-18]
42 | 140 °C | < 10 | CN(C)c1nc(Cc2ccc(NC(=O)c3ccc(Cl)c(Cl)c3)cc2)ncc1CC(=O)O [Example 2-8]
43 | 156 °C | < 10 | CC(C)Oc1ccc(C(=O)Nc2ccc(Cc3nc(Cl)c(CC(=O)O)c(N4CCCC4)n3)cc2)cc1 [Example 1-56]
44 | > 139 °C | < 10 | CN(CC(=O)NC1CCCC1)c1nc(Cc2ccc(NC(=O)CCc3ccccc3)cc2)nc(Cl)c1CC(=O)O [Example 1-14]
45 | > 118 °C | > 500 | CC(=O)Nc1ccc(Cc2nc(Cl)c(CC(=O)O)c(N(C)CC(=O)NC3CCCC3)n2)cc1 [Example 1-10]

— patent publication US7960393B2, “Pyrimidine derivatives useful for the treatment of diseases mediated by CRTH2” (Actimis Pharmaceuticals, Inc., priority 2002, dated 2011)
